This passage reports EC50 results from patent US20240270821A1, “GIP/GLP1/GCG TRI-RECEPTOR AGONISTS AND USES THEREOF” (priority 2023, published 2024).

Holding throughout (assay type): cell-based
One assay deals with hGcgR (Homo sapiens, UniProt P47871). The assay is described as follows: Functional cAMP activation in the presence of 0.1% casein (no HSA). The settings on record: read-out: Relative cAMP EC50, hGcgR.
For another assay, the target named is human GcgR (Homo sapiens, UniProt P47871). The assay is described as follows: Functional cAMP activity in the presence of 1% HSA. The conditions noted are these: read-out: cAMP Rel EC50, hGcgR.
For assay [1], the target named is T1, hGLP-1R (Homo sapiens, UniProt P43220). The assay is described as follows: Functional cAMP activity in the presence of 1% HSA. The settings on record: read-out: cAMP Rel EC50, hGLP-1R.
Assay [2] deals with T1, hGLP-1R. The assay is described as follows: Functional cAMP activation in the presence of 0.1% casein (no HSA). The conditions noted are these: read-out: Relative cAMP EC50, hGLP-1R.
For assay [3], the target named is T2, hGIPR (Homo sapiens, UniProt P48546).
T2 sequence (P48546 22-466): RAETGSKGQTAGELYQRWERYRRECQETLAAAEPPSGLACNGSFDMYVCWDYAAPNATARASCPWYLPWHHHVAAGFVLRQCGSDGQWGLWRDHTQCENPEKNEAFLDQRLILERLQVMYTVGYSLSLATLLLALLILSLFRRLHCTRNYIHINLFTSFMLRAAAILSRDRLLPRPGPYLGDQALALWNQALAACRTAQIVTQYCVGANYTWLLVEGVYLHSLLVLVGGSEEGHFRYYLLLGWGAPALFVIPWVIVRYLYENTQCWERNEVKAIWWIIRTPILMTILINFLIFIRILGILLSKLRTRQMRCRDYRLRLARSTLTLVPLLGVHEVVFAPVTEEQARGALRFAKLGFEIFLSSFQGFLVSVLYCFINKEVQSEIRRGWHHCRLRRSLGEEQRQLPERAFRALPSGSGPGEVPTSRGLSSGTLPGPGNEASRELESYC
The assay is described as above. The conditions noted are these: read-out: Relative cAMP EC50, hGIPR.

Assay [4] concerns the target T2, hGIPR. The assay is described as follows: Functional cAMP activity in the presence of 1% HSA. The settings on record: read-out: cAMP Rel EC50, hGIPR.
Setting [5] is: in the presence of 0.1% casein (no HSA), geometric mean.

Like-named read-outs stand apart in the source and are kept apart here. Starred links: 1 amine or outer side, 2 acyl side, 3 side chain; linkers in the order of their positions; H or OH if unused. Non-standard residues stand in square brackets, D forms with d. Residues, ends and D or L forms follow the SMILES beside them. Groups on a side chain read outwards from the residue. No end group written: not given here. *: point of attachment. C18 diacid = O=C(O)CCCCCCCCCCCCCCCCC(=O)*; αMePhe(2-F) = C[C@](N)(Cc1ccccc1F)C(=O)O; γGlu = O=C(O)[C@H](CCC(=O)[*:2])N[*:1]; αMe4Pal = C[C@](N)(Cc1ccncc1)C(=O)O; αMeY = C[C@](N)(Cc1ccc(O)cc1)C(=O)O; 4Pal = N[C@@H](Cc1ccncc1)C(=O)O; αMeL = CC(C)C[C@](C)(N)C(=O)O; αMeS = C[C@](N)(CO)C(=O)O; Orn = NCCC[C@H](N)C(=O)O; AEEA = NCCOCCOCC(=O)O; Aib = CC(C)(N)C(=O)O
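Throughout, for Relative cAMP EC50, hGIPR: intracellular cAMP rise after 30 min at 37 °C read by HTRF against a standard curve, scaled between buffer alone (0%) and top control ligand concentration (100%), four-parameter fit.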
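Throughout, for Relative cAMP EC50, hGLP-1R: intracellular cAMP rise after 30 min at 37 °C read by HTRF, normalized between buffer only (0%) and maximal control ligand (100%), four-parameter variable-slope fit.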
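Throughout, for Relative cAMP EC50, hGcgR: intracellular cAMP rise after 30 min at 37 °C, read by HTRF against a cAMP standard curve, scaled from buffer only (0%) to maximal control ligand response (100%).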

T1 sequence (P43220 24-463): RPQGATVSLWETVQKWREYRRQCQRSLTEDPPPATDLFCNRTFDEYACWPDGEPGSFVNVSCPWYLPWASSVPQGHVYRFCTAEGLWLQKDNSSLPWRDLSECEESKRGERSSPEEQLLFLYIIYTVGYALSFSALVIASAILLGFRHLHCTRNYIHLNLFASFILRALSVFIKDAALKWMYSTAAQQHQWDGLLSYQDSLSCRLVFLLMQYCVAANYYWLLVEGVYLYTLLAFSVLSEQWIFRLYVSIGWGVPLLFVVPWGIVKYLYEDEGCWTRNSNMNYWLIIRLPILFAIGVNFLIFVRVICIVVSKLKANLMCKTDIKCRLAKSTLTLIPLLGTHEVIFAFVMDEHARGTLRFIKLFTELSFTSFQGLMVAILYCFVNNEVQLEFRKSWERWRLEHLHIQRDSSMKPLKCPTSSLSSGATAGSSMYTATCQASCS
Sequence of hGcgR (P47871 26-477): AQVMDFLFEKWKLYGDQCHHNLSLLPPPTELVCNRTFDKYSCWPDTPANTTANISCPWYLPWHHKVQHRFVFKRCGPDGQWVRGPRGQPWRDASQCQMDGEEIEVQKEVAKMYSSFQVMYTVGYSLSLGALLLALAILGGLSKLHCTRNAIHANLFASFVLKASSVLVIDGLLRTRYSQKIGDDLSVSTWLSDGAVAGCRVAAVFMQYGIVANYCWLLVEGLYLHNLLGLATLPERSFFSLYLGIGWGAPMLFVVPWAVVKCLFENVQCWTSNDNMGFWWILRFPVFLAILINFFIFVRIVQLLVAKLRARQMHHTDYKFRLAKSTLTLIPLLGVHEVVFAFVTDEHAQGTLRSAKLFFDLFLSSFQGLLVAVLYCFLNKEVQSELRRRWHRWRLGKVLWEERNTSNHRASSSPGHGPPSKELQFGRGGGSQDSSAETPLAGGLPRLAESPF
Sequence of human GcgR (P47871 26-477): as above

With “H-Y[Aib]QGT[αMePhe(2-F)]TSD[4Pal][αMeS]I[αMeL]LD[Orn]K([γGlu-γGlu-C18 diacid])AQ[Aib][Orn]FI[dE]YLSEGGPSSGEPPPSGTE-NH2 [Example 530]”, the EC50 at hGcgR was 17.1 nM; at human GcgR, 1280 nM; at hGLP-1R [1], 437 nM; on hGLP-1R [2], 4.91 nM; at hGIPR [3], 0.874 nM; at hGIPR [4], 63.7 nM.
Regarding “H-Y[Aib]QGT[αMePhe(2-F)]TSD[4Pal][αMeS]I[αMeL]LD[Orn]K([AEEA-γGlu-C18 diacid])AQ[αMe4Pal]EFI[dE][αMeY]LIEGGPSSGEPPPEGE-NH2 [Example 1149]”, the EC50 was 1.37 nM at hGcgR (setting [5]); 184 nM on human GcgR; 52.2 nM on hGLP-1R [1]; 0.352 nM on hGLP-1R [2] (setting [5]); 0.00804 nM on hGIPR [3] (setting [5]); 0.96 nM at hGIPR [4].
Turning to “H-Y[Aib]QGTFTSD[4Pal]SQ[αMeL]LDKK([AEEA-γGlu-C18 diacid])AQ[αMe4Pal]AFIEYLIE[Aib]GPSSGAPPPSGSEEE-NH2 [Example 898]”, the EC50 on hGcgR (setting [5]) was found to be 3.39 nM; at human GcgR it was 770 nM; at hGLP-1R [1], 584 nM; at hGLP-1R [2] (setting [5]) it was 4.62 nM; on hGIPR [3] (setting [5]), 0.287 nM; at hGIPR [4] it was 25.5 nM.
For “H-Y[Aib]QGT[αMePhe(2-F)]TSD[4Pal]SILLDKK([γGlu-γGlu-C18 diacid])AQ[Aib]AFIEYLEEGGPSSGAPPPSGTE-NH2 [Example 509]”, the concentration giving a half-maximal response (EC50) on hGcgR was 4.66 nM; on human GcgR, 617 nM; on hGLP-1R [1], 69.2 nM; on hGLP-1R [2], 0.65 nM; at hGIPR [3], 0.0557 nM; at hGIPR [4], 5.01 nM.
Take “H-Y[Aib]QGTFTSD[4Pal][αMeS]Q[αMeL]LD[Orn]K([dE-γGlu-C18 diacid])AQ[αMe4Pal]QFIQ[αMeY]LIE[Aib]GPSSGAPPPSGGGE-NH2 [Example 1186]”: the EC50 is 1.46 nM at hGcgR (setting [5]); 164 nM at human GcgR; 52.1 nM at hGLP-1R [1]; 0.594 nM at hGLP-1R [2] (setting [5]); 0.0404 nM at hGIPR [3] (setting [5]); 3.17 nM at hGIPR [4].
On to “H-Y[Aib]QGT[αMePhe(2-F)]TSDY[αMeS]I[αMeL]LD[Orn]K([AEEA-γGlu-C18 diacid])AQ[Aib][Orn]FI[dE][αMeY]LEEGGPSSGEPPPEEG-NH2 [Example 403]”, for which the concentration for a half-maximal effect (EC50) on hGcgR turned out to be 1.59 nM; on human GcgR, 527 nM; at hGLP-1R [1], 70 nM; on hGLP-1R [2], 0.396 nM; on hGIPR [3], 0.0827 nM; on hGIPR [4], 36.9 nM.
For the compound “H-Y[Aib]QGT[αMePhe(2-F)]TSD[4Pal][αMeS]I[αMeL]LD[Orn]K([AEEA-γGlu-C18 diacid])AQ[Aib][Orn]FI[dE][αMeY]LIEGGPSSGEPPPEGE-NH2 [Example 698]”, the EC50 amounted to 1.53 nM on hGcgR; 124 nM on human GcgR; 20.6 nM at hGLP-1R [1]; 0.252 nM at hGLP-1R [2]; 0.0112 nM on hGIPR [3]; 0.824 nM at hGIPR [4].
Take “H-Y[Aib]QGT[αMePhe(2-F)]TSD[4Pal][αMeS]I[αMeL]LD[Orn]K([γGlu-γGlu-C18 diacid])AQ[Aib][Orn]FI[dE][αMeY]LAEGGPSSGEPPPSGEEE-NH2 [Example 592]”: the half-maximal effective concentration (EC50) came to 4.25 nM on hGcgR; 195 nM at human GcgR; 55.6 nM at hGLP-1R [1]; 1.12 nM on hGLP-1R [2]; 0.0971 nM at hGIPR [3]; 4.05 nM at hGIPR [4].
Consider “H-Y[Aib]QGTFTSD[4Pal]S[Orn][αMeL]LDKK([γGlu-γGlu-C18 diacid])AQ[αMe4Pal]AFIEYLIAGGPSSGEPPPSGTEE-NH2 [Example 981]”, for which the EC50 at hGcgR (setting [5]) was 3.7 nM; at human GcgR it was 477 nM; at hGLP-1R [1] it was 330 nM; on hGLP-1R [2] (setting [5]), 4.45 nM; at hGIPR [3] (setting [5]) it was 0.243 nM; on hGIPR [4], 21.1 nM.
Regarding “H-Y[Aib]QGTFTSD[4Pal]S[Orn][αMeL]LDKK([γGlu-γGlu-C18 diacid])AQ[αMe4Pal]AFIEYLIAGGPSSGAPPPSGSE-NH2 [Example 1009]”, the EC50 on hGcgR (setting [5]) was determined as 4.21 nM; at human GcgR, 268 nM; at hGLP-1R [1], 174 nM; on hGLP-1R [2] (setting [5]) it was 2.1 nM; on hGIPR [3] (setting [5]), 0.13 nM; on hGIPR [4] it was 9.72 nM.
For the compound “Y[Aib]QGT[αMePhe(2-F)]TSD[4Pal][αMeS]I[αMeL]LD[Orn]K([γGlu-γGlu-C18 diacid])AQ[αMe4Pal]EFI[dE][αMeY]LVEGGPSSGAPPPSGSE-NH2 [Example 1162]”, the EC50 stood at 2.55 nM at hGcgR (setting [5]); 199 nM on human GcgR; 34.5 nM on hGLP-1R [1]; 0.372 nM on hGLP-1R [2] (setting [5]); 0.00818 nM at hGIPR [3] (setting [5]); 0.656 nM at hGIPR [4].
As for “H-Y[Aib]QGTFTSD[4Pal]SQ[αMeL]LD[Orn]K([γGlu-γGlu-C18 diacid])AQ[αMe4Pal]AFI[dE][αMeY]LIEGGPSSGAPPPSGSEE-NH2 [Example 1044]”, the EC50 amounted to 18.8 nM at hGcgR (setting [5]); 2410 nM on human GcgR; 1110 nM at hGLP-1R [1]; 10.7 nM at hGLP-1R [2] (setting [5]); 0.896 nM on hGIPR [3] (setting [5]); 88.7 nM at hGIPR [4].
Consider `CC[C@H](C)[C@H](NC(=O)[C@H](Cc1ccccc1)NC(=O)[C@H](C)NC(=O)C(C)(C)NC(=O)[C@H](CCC(N)=O)NC(=O)[C@H](C)NC(=O)[C@H](CCCCNC(=O)COCCOCCNC(=O)CC[C@H](NC(=O)CCCCCCCCCCCCCCCCC(=O)O)C(=O)O)NC(=O)[C@H](CCCCN)NC(=O)[C@H](CC(=O)O)NC(=O)[C@H](CC(C)C)NC(=O)[C@](C)(CC(C)C)NC(=O)[C@@H](NC(=O)[C@H](CO)NC(=O)[C@H](Cc1ccc(O)cc1)NC(=O)[C@H](CC(=O)O)NC(=O)[C@H](CO)NC(=O)[C@@H](NC(=O)[C@](C)(Cc1ccccc1F)NC(=O)[C@@H](NC(=O)CNC(=O)[C@H](CCC(N)=O)NC(=O)C(C)(C)NC(=O)[C@@H](N)Cc1ccc(O)cc1)[C@@H](C)O)[C@@H](C)O)[C@@H](C)CC)C(=O)N[C@@H](CCC(=O)O)C(=O)N[C@@H](Cc1ccc(O)cc1)C(=O)N[C@@H](CC(C)C)C(=O)N[C@@H](CCC(=O)O)C(=O)N[C@@H](CCC(=O)O)C(=O)NCC(=O)NCC(=O)N1CCC[C@H]1C(=O)N[C@@H](CO)C(=O)N[C@@H](CO)C(=O)NCC(=O)N[C@@H](C)C(=O)N1CCC[C@H]1C(=O)N1CCC[C@H]1C(=O)N1CCC[C@H]1C(=O)N[C@@H](CO)C(N)=O` [Example 421] (H-Y[Aib]QGT[αMePhe(2-F)]TSDYSI[αMeL]LDKK([AEEA-γGlu-C18 diacid])AQ[Aib]AFIEYLEEGGPSSGAPPPS-NH2), for which the EC50 at hGcgR is 3.25 nM; on human GcgR it was 468 nM; at hGLP-1R [1], 31.9 nM; on hGLP-1R [2], 0.21 nM; at hGIPR [3], 0.0132 nM; at hGIPR [4], 2.98 nM.
Take “H-Y[Aib]QGT[αMePhe(2-F)]TSD[4Pal]SI[αMeL]LD[Orn]K([γGlu-γGlu-C18 diacid])AQ[αMe4Pal][Orn]FI[dE][αMeY]LIEGGPSSGEPPPEGTE-NH2 [Example 687]”: the concentration for a half-maximal effect (EC50) at hGcgR is 2.41 nM; at human GcgR, 157 nM; on hGLP-1R [1], 21.3 nM; at hGLP-1R [2], 0.277 nM; at hGIPR [3], 0.00903 nM; at hGIPR [4] it was 0.595 nM.
In the case of “H-Y[Aib]QGTFTSD[4Pal][αMeS]Q[αMeL]LD[Orn]K([dE-γGlu-C18 diacid])AQ[αMe4Pal]QFIQ[αMeY]LIE[Aib]GPSSGEPPPSGGGE-NH2 [Example 1183]”, the 50% effective concentration (EC50) on hGcgR (setting [5]) was found to be 1.38 nM; on human GcgR, 127 nM; on hGLP-1R [1], 53.6 nM; on hGLP-1R [2] (setting [5]), 0.769 nM; on hGIPR [3] (setting [5]) it was 0.0484 nM; at hGIPR [4], 3.16 nM.

The EC50 is the concentration that produces a half-maximal response.
